Experimental data reported in paper PMC2811193, “Complementary Roles in Cancer Prevention: Protease Inhibitor Makes the Cancer Preventive Peptide Lunasin Bioavailable” (PLoS ONE, 2010).

Experiments:
[1] = tested on: Pancreatin from porcine pancreas; experiment: In vitro digestion of lunasin with pancreatin, with or without protease inhibitors; format: in vitro ADME; conditions: pre-incubation with inhibitor 30 min at 25°C, pancreatin 1 h at 37°C, Western-Blot band intensity
Experimental: (§1) Figure 2 Soy-derived BBI and KTI protect synthetic lunasin from in vitro digestion. The upper, lighter bands are Coomassie Blue protein stains and the lower, darker bands are Western blots. (M) Markers, (1) Lunasin (600 ng) + pancreatin (600 ng) incubated for 0 h at 37°C, (2) Lunasin (600 ng) + pancreatin (600 ng) incubated for 1 h at 37°C, (3) Lunasin (600 ng) + BBI (18,000 ng, unboiled) + pancreatin (600 ng) incubated for 1 h at 37°C, (4). Lunasin (600 ng) + KTI (18,000 ng, unboiled) + pancreatin (600 ng) incubated for 1 h at 37°C, (5) Lunasin (600 ng) + BBI (18,000 ng, boiled) + pancreatin (600 ng) incubated for 1 h at 37°C, (6) Lunasin (600 ng)+KTI (18,000 ng, boiled) + pancreatin (600 ng) incubated for 1 h at 37°C, (7) BBI (unboiled), (8) KTI (unboiled).
(§2) In vitro digestion of lunasin was carried out following the method published in the United States Pharmacopeia. Synthetic lunasin (American Peptide Company, Inc. Sunnyvale, CA, USA) (5 µg) was incubated with the protease inhibitors BBI or KTI (Sigma, St. Louis, MO, USA) for 30 min at 25°C. Pancreatin from porcine pancreas (Sigma) was added (enzyme∶protein ratio of 1∶10) and solution was incubated at 37°C for 1 h. Tris-tricine sample buffer was added at the end of the reaction and immediately stopped by placing the tubes in a boiling water bath for 5 min. The digests were analyzed by SDS-PAGE and Western-Blot following the protocol previously described.

pancreatin = experiment: as above; format: in vitro ADME, porcine; conditions: pig, pancreatin from porcine pancreas; in the presence of boiled KTI; pre-incubation with inhibitor 30 min at 25°C; pancreatin 1 h at 37°C; Western-Blot band intensity; read-out: lunasin remaining intact after digestion with pancreatin
Experimental: as §1, §2

[2] = Bioavailability of 3H-lunasin after oral gavage with LES in CD-1 mice; format: in vivo
Experimental: Bioavailability studies in mice were done at North View Pacific Laboratories (Hercules, CA, USA), according with the Animal Care and Use Committee (ACUC) human guidelines. CD-1 mice (3-5 weeks old) were purchased from Jackson Laboratories (Bar Harbor, ME, USA) and conditioned on AIN76A diet for one week. Forty mice (20 male and 20 female) were fasted for 8 hrs before oral administration by gavage. Mice were separated into two groups, a control group receiving 240 mg of LES formulation and a treatment group receiving 240 mg of LES formulation plus 8 µCi of ^3H-lunasin (SibTech, Inc. Brookfield, CT, USA) in 0.1 mL of 10% sucrose solution. Four mice of each group were sacrificed at 3, 6, 9, 12 and 24 hrs after oral administration. The tissue samples were collected and prepared for scintillation counting by solubilizing in TS-2 tissue solubilizer (Research Products International Corp., Chicago, IL, USA) and addition of 15% benzoyl peroxide. Each sample was read in 5 ml of HionicFluor cocktail mix using a 1600TR liquid scintillation counter (Packard Inst. Meriden CT, USA).
Supplementary file pone.0008890.s001.tif: Figure S1 Recovery of ^3H-lunasin dose (expressed in percentage) in (-▴-) total, (-•-) tissues, and (-o-) gastrointestinal contents of mice at 3, 6, 9, 12, and 24 hours post-gavage of lunasin-enriched soy (LES). […]

MDA-MB-231 tumors = experiment: In situ TUNEL assay for apoptosis in xenograft tumor sections; format: in vivo, athymic NCr-nu/nu mice; conditions: lunasin 20 and 4 mg/kg (P = 0.0088, 0.0141 vs control), BBI 20 mg/kg i.p.
Experimental: In situ terminal deoxynucleotidyl transferase-mediated dUTP nick end labeling (TUNEL) assay was performed using ApopTag Detection Kit (Millipore, USA & Canada) and ran based on the manufacturer's protocol. Briefly, deparaffinized and rehydrated sections were pretreated with 20 µg/mL proteinase K for 15 min and incubated with terminal transferase and digoxigenin dUTP at 37°C for 1 h. After washing, sections were incubated with antidigoxigenin rhodamine (Millipore) and DAPI (Invitrogen), and slides were visualized by fluorescent microscopy (Axiophot 381). The apoptotic cells were calculated as percentage of positive cells over total number of cells counted in microscope at 400× magnification.

## CC[C@H](C)[C@H](NC(=O)[C@H](CCCCN)NC(=O)[C@H](CCC(=O)O)NC(=O)[C@H](CCSC)NC(=O)[C@@H](NC(=O)[C@H](Cc1c[nH]cn1)NC(=O)[C@H](CCCCN)NC(=O)[C@H](CCC(=O)O)NC(=O)[C@H](CS)NC(=O)[C@@H]1CCCN1C(=O)[C@@H](NC(=O)[C@H](CC(C)C)NC(=O)[C@H](CC(N)=O)NC(=O)[C@@H](NC(=O)CNC(=O)[C@H](CCC(N)=O)NC(=O)[C@H](CC(C)C)NC(=O)[C@H](CCC(N)=O)NC(=O)[C@H](CCCCN)NC(=O)[C@H](CCCNC(=N)N)NC(=O)[C@H](CS)NC(=O)[C@H](CO)NC(=O)[C@H](CC(=O)O)NC(=O)[C@H](CCC(N)=O)NC(=O)[C@H](CCC(N)=O)NC(=O)[C@H](Cc1c[nH]cn1)NC(=O)[C@H](CCC(N)=O)NC(=O)[C@H](Cc1c[nH]c2ccccc12)NC(=O)[C@H](CCCCN)NC(=O)[C@@H](N)CO)C(C)C)[C@@H](C)O)[C@@H](C)CC)C(=O)N[C@@H](CCC(N)=O)C(=O)NCC(=O)N[C@@H](CCCNC(=N)N)C(=O)NCC(=O)N[C@@H](CC(=O)O)C(=O)N[C@@H](CC(=O)O)C(=O)N[C@@H](CC(=O)O)C(=O)N[C@@H](CC(=O)O)C(=O)N[C@@H](CC(=O)O)C(=O)N[C@@H](CC(=O)O)C(=O)N[C@@H](CC(=O)O)C(=O)N[C@@H](CC(=O)O)C(=O)N[C@@H](CC(=O)O)C(=O)O [lunasin]
[1]; in the presence of boiled BBI
  lunasin remaining intact after digestion with pancreatin: 98%
[1]; in the presence of unboiled BBI
  lunasin remaining intact after digestion with pancreatin: Approximately 93%
[1]; in the presence of unboiled KTI
  lunasin remaining intact after digestion with pancreatin: ~97%
pancreatin
  remaining at 1 h: 84%
[2]; 3 hrs post-gavage, 3H-labelled synthetic lunasin (8 µCi) mixed with 240 mg LES, CD-1 mice fasted 8 hrs, scintillation counting of tissues
  total oral dose of lunasin absorbed: approximately 30%
[2]; oral gavage of 3H-lunasin with LES, CD-1 mice, 3H radioactivity in brain
  crossing of the blood-brain barrier: able to cross the blood-brain barrier
MDA-MB-231 tumors
  TUNEL-positive apoptotic cells in tumors: significantly increased apoptosis
